From patent publication US10294470B2, “Electronic expression of the inward rectifier in cardiocytes derived from human induced pluripotent stem cells” (The Research Foundation for The State University of New York, priority 2013, dated 2019) come the findings set out here.

This data set deals with h-iPSC-derived cardiac myocytes. The data set can be described thus: Current clamp action potential recording in paced h-iPSC-derived cardiac myocytes with and without electronic IK1. The class given is cell-based, human. The following applies: 1 μM; for effect on action potential duration (APD): paced cells with electronic expression of IK1,synthetic; for effect on action potential duration / repolarization / effect on spontaneous activity: paced cells without electronic IK1. On the procedure:
Commercially-available iPSC-derived cardiac myocytes (iCell Dynamics, WI), were prepared according to manufacturer's instructions. Briefly, ICELL® cardiac myocytes (cryopreserved single-cell suspensions in 1 ml cryovials) were stored in liquid nitrogen. Vials were thawed in a waterbath (37° C.). Cells were washed then rinsed with 1 ml of RT “ICELL® Cardiomyocyte Plating Medium.” An additional 8 ml of plating medium was added and cells mixed with solution by gentile inversion. Cardiocytes were seeded on 15 mm cover-slips coated with 0.01% (w/v) gelatin solution in 12-well plates. Cardiocytes were seeded (20,000-40,000/dish) in 2 ml of RT plating medium, permitting single cell culture, and incubated for 2+ days at 37° C., 7% CO2. Non adherent cells were removed by rinsing with “ICELL® Cardiomyocyte Maintenance Medium.” A further 2 ml of maintenance medium was added. Maintenance medium was changed every 2 days, and cells were used within 1 week.
iPSC-derived cardiocytes were voltage clamped. Currents were recorded using whole-cell clamp at RT. Cells in the recording chamber (300 μl) were continuously perfused with Tyrode. Pipettes fabricated from borosilicate glass (Flaming/Brown horizontal micropipette puller) and tips heat-polished (NARISHIGE® microforge). Pipettes contained (mM): 10 NaCl, 125 KCl, 1 MgSO4, 5 EGTA, 5 ATP (Mg salt), 5 Tris-creatinephosphate, 0.3 GTP, 10 HEPES, pH 7.2. Extracellular solution (mM): 150 NaCl, 5.4 KCl, 0.5 Na2HPO4, 1 MgCl2, 2 CaCl2), 10 glucose, 10 HEPES, pH7.4. After establishing a seal (1-10 Gohm), suction and voltage pulses were used to rupture the patch. Currents were recorded (Axopatch-1D, Molecular Dynamics, CA) and interfaced to a PENTIUM® 4 computer via a DIGIDATA® 1322A (Molecular Dynamics, CA). PCLAMP® 9.0 (Molecular Dynamics, CA) was used to control protocols and data acquisition.
We used an Analog and Digital I/O board PCIe-DAS1602/16 (Measurement Computing Corporation) installed on a on a DELL PRECISION® T7500 workstation with 2 INTEL® XEON® CPU E5520 to transfer the Vm signal to the signal of IK1 current. Source code is in the supplement.
Analysis was performed using PCLAMP® 9 (Molecular Dynamics). Action potential duration (APD) was computed for 50% (APD50) and 90% (APD90) of repolarization in ms. Maximum rate of rise of the AP upstroke was determined (dVm/dtmax) in mV/ms. Resting membrane potential was recorded prior to each AP. For spontaneous APs, the diastolic characteristics were reported for the period of time between complete AP repolarization and the beginning of depolarization in the subsequent AP. Duration, and minimum/mean potentials were computed for the diastolic period.
In order to overcome the lack of IK1 in h-iPSC-derived cardiac myocytes, we developed a variation of the dynamic clamp approach to inject a synthetic version of IK1 (FIG. 1). The center of the system is the isolated h-iPSC-derived cardiac myocyte under whole cell voltage or current clamp. Whole cell clamp is accomplished with a gigaseal under conventional current clamp mode. The membrane voltage of the cardiac myocyte is output from the amplifier and fed into a computer via a digitizer which calculates the inward rectifier current for the membrane potential, according to the equation shown in FIG. 1. The calculated value of IK1,Synthetic is passed through a potentiometer (used to adjust amplitude without sacrificing digital resolution) to scale IK1 and then summed with the standard stimulation input from PCLAMP®. A switch allows rapid changes between conventional current clamp and summed input. When the summed input is switched on, the myocyte receives the sum of two inputs: the standard AP stimulus current plus IK1,Synthetic from the real-time current simulator. The standard voltage clamp electronics can be driven via the summing circuit without modification of conventional voltage clamp and data recording with only minor software selection changes of input/output channels. […]

In the case of `COC(=O)C1=C(C)NC(C)=C([N+](=O)[O-])C1c1ccccc1C(F)(F)F` (stereo not drawn) [BayK-8644], the “effect on action potential duration (APD)” value is “clear AP prolongation”, the “effect on action potential duration / repolarization” value is “not uniformly observed” and the “effect on spontaneous activity” value is recorded as “termination of spontaneous full scale AP activity”. In addition, where the note is “listed as BayK8644”, the “effect on action potential duration (APD)” value is “APD is prolonged”, the “effect on action potential duration / repolarization” value is given as “severely shortened repolarization” and the “effect on spontaneous activity” value is “terminated spontaneous activity”. In addition, under “with IK1,synthetic”, the “arrhythmogenic phenomenon of alternans” value is recorded as “alternans is observed”. Besides, the “Ratio of APD90 with/without BayK8644” value (with IK1,synthetic expression) is reported as “major increase in APD”. The “Ratio of APD90 with/without BayK8644” value (without IK1,synthetic expression) is “anomalous decrease in APD90”.
